According to US9084785B2, “Composition for accelerating change in muscle type” (AMOREPACIFIC CORPORATION, priority 2010, dated 2015):

Experiments:
C57BL/6 mice [1] = test: Blood analysis (blood sugar, serum triglyceride and cholesterol); type: in vivo, mouse; details: 200 mg/kg oral once a day, 8 weeks
Experimental: 5-week-old male C57BL/6 mice were grouped with 10 mice per group. They were orally administered with Gynostemma pentaphyllum leaf extract, Artemisia princeps extract, astragali radix extract or EPA alone, a mixture of Artemisia princeps extract, Gynostemma pentaphyllum leaf extract and astragali radix extract or a mixture of EPA, Gynostemma pentaphyllum leaf extract and astragali radix extract (200 mg/kg) as test substances for 8 weeks, once a day. Then, blood analysis was performed to evaluate blood sugar level and serum triglyceride and cholesterol levels. The blood sugar level was measured using the Accu-Check Active kit (Roche Diagnostics, Seoul, Korea). The blood sample was centrifuged at 3000 rpm for 10 minutes to separate serum. Triglyceride and cholesterol levels in the separated serum were analyzed using the […] analyzer (Vital Scientific, […], The Netherlands).

C57BL/6 mice [2] = test: Change in muscle type (slow-twitch myosin staining of plantaris muscle); type: in vivo, mouse; details: 200 mg/kg oral once a day, 8 weeks
Experimental: 5-week-old male C57BL/6 mice were grouped with 10 mice per group to evaluate change in muscle type after administration of test substances. The experimental mice were orally administered with Gynostemma pentaphyllum leaf extract, Artemisia princeps extract, astragali radix extract or EPA alone, a mixture of Artemisia princeps extract, Gynostemma pentaphyllum leaf extract and astragali radix extract or a mixture of EPA, Gynostemma pentaphyllum leaf extract and astragali radix extract (200 mg/kg) as test substances for 8 weeks, once a day. The mice were fasted for 12 hours before autopsy. Plantaris muscle was taken from the mice of each test group and frozen in liquid nitrogen. The frozen tissue was sliced to 10-μm thickness using a cryotome, fixed in acetone for 10 minutes, and washed 3 times with PBS. After blocking for 2 hours with PBS containing 10% FBS, the tissue sections were treated with anti-slow-twitch myosin antibody (Abcam, Cambridge, UK) as primary antibody and with fluorescein isothiocyanate (FITC)-conjugated anti-mouse IgG antibody (Molecular Probes) as secondary antibody. After mounting with antifade solution, the sections were examined by confocal microscopy.

Work on `CC/C=C\C/C=C\C/C=C\C/C=C\C/C=C\CCCC(=O)O` [EPA, eicosapentaenoic acid] yielded a Blood sugar (C57BL/6 mice [1]) of 181.2 ± 10.9 mg/dL, a Cholesterol (C57BL/6 mice [1]; serum) of 164.9 ± 12.1 mg/dL and a Triglyceride (C57BL/6 mice [1]; serum) of 101.23 ± 11.3 mg/dL. The “Fast-twitch muscle (%)” value (C57BL/6 mice [2]) was 70.6 ± 3.6% and the “Slow-twitch muscle (%)” value (C57BL/6 mice [2]) was 29.4 ± 4.2%.
